This note sets out measurements from patent US4737518A, “Lipid derivatives, their production and use” (Takeda Chemical Industries, Ltd., priority 1984, dated 1988).

Each structure is given as a SMILES string.

Assay [1] relates to rabbit platelet aggregation by PAF. Kind of assay: Inhibitory activity on rabbit platelet aggregation by PAF. The conditions noted are these: Oryctolagus cuniculus, PAF 1×10^-8 M, read-out: rate of inhibition of rabbit platelet aggregation by PAF; for inhibition at 30 µM: test drug 3 × 10^-5 M; for inhibition at 3 µM: test drug 3 × 10^-6 M; for inhibition at 0.3 µM: test drug 3 × 10^-7 M; for inhibition at 0.03 µM: test drug 3 × 10^-8 M. Type of assay: cell-based.

For another assay, the system named is PAF-induced hypotension. Briefly: Inhibitory activity against PAF-induced hypotension in rats. The settings on record: PAF 0.3 μg/kg i.v. Type of assay: in vivo, rat (male Spraque-Dawley). Here is the method: Inhibitory activity against PAF-induced hypotension in rats
Male Spraque-Dawley rats, with a body weight of about 400 g, were used under pentobarbital sodium (50 mg/kg, intravenous administration) anesthesia. A cannula was inserted into the femoral artery and secured in position for measurement of blood pressure and another cannula into the femoral vein for administration of a solution of the drug. The blood pressure was measured via a pressure transducer and recorded on a polygraph. First, 0.3 μg/kg of PAF was administered intravenously and the hypotensive response was recorded.
The inhibitory activity against PAF-induced hypotension was estimated from the rate of PAF-induced hypotensive response (Δ mmHg) after the drug administration to hypotensive response (Δ mmHg) by PAF before the drug administration.

Take `CCCCCCCCCCCCCCCCCCOCC(COC(=O)NCC[n+]1ccsc1)OCc1ccccc1` (stereo not drawn) [Example 8, 2-O-Benzyl-1-O-octadecyl-3-O-(2'-thiazolioethyl)carbamoylglycerol bromide]: the inhibition at 30 µM in assay [1] amounted to 100%.
On to `CCCCCCCCCCCCCCCCCCNC(=O)OCC(COC(=O)NCC[N+](C)(C)C)OC` (stereo not drawn) [Example 10, 2-O-Methyl-1-O-octadecylcarbamoyl-3-O-(2'-trimethylammonioethyl)carbamoylglycerol iodide], for which, in assay [1], the inhibition at 30 µM came to 82%.
Turning to `CCCCCCCCCCCCCCCCCCNC(=O)OCC(COC(=O)NCC[n+]1ccsc1)OC` (stereo not drawn) [Example 14, 2-O-Methyl-1-O-octadecylcarbamoyl-3-O-(2'-thiazolioethyl)carbamoylglycerol bromide], in assay [1], the inhibition at 30 µM came out at 100% and the inhibition at 3 µM was 52%.
For `CCCCCCCCCCCCCCCCCCOCC(COC(=O)NCC[N+](C)(C)C)NC(C)=O` (stereo not drawn) [Example 19, 1-Octadecyloxy-2-acetamido-3-(2'-trimethylammonioethyl)carbamoyloxypropane iodide], the inhibition at 30 µM in assay [1] was 72%.
As for `CCCCCCCCCCCCCCCCCCOCC(COC(=O)N(CC[N+](C)(C)C)C(C)=O)NC(C)=O` (stereo not drawn) [Example 20, 1-Octadecyloxy-2-acetamido-3-[N-acetyl-N-(2'-trimethylammonioethyl)]carbamoyloxypropane iodide], in assay [1], the inhibition at 30 µM was 100% and the inhibition at 3 µM stood at 100%.
Regarding `CCCCCCCCCCCCCCCCCCNC(=O)OCC(COC(=O)N(CC[N+](C)(C)C)C(=O)OC)OC` (stereo not drawn) [Example 56, 2-O-Methyl-1-O-[N-methoxycarbonyl-N-(2'-trimethylammonioethyl)]carbamoyl-3-O-octadecylcarbamoylglycerol iodide], in assay [1], the inhibition at 30 µM is 100% and the inhibition at 3 µM was found to be 64%.
For `CCCCCCCCCCCCCCCCCCNC(=O)OCC(COC(=O)N(CC[N+](C)(C)C)C(=O)N(C)C)OC` (stereo not drawn) [Example 62, 1-O-[N-Dimethylcarbamoyl-N-(2'-trimethylammonioethyl)]carbamoyl-2-O-methyl-3-O-octadecylcarbamoylglycerol iodide] the same measures were 100% and 34%.
Consider `CCCCCCCCCCCCCCCCCCOCC(Cn1ccc(=O)n(CC[N+](C)(C)C)c1=O)OC(C)=O` (stereo not drawn) [Example 102, 1-(2-Acetyloxy-3-octadecyloxy)propyl-3-(2-trimethylammonioethyl)urasil chloride], for which the inhibition at 1 µM in assay [1] (test drug 1 × 10^-6 M) turned out to be 72%. Also, in assay [1], the inhibition at 30 µM amounted to 100% and the inhibition at 3 µM was determined as 100%.
As for `CCCCCCCCCCCCCCCCCCNC(=O)OCC(CN1CC(=O)N(CC[n+]2ccsc2)C1=O)OC` (stereo not drawn) [Example 110, 1-[(2-methoxy-3-octadecylcarbamoyloxy)propyl]-3-(2-thiazolioethyl)hydantoinchloride], in assay [1], the inhibition at 30 µM came to 100%, the inhibition at 3 µM was 100% and the inhibition at 0.3 µM was determined as 34%.
Turning to `CCCCCCCCCCCCCCCCCCNC(=O)OCC(COC(=O)N(Cc1cccc[n+]1C)C(C)=O)OCC` (stereo not drawn) [Example 116], in the assay with PAF-induced hypotension (1 mg/kg i.v., after 5 min), the Restoration rate turned out to be 100%. Moreover, the Restoration rate in the assay on PAF-induced hypotension (1 mg/kg i.v., after 60 min) is listed as 77%. For the same compound, in assay [1], the inhibition at 30 µM turned out to be 100%, the inhibition at 3 µM came to 100% and the inhibition at 0.3 µM was 100%.
In the case of `CCCCCCCCCCCCCCCCCCNC(=O)OCC(COC(=O)N(Cc1cccc[n+]1CC)C(C)=O)OCC` (stereo not drawn) [Example 117], the Restoration rate in the assay with PAF-induced hypotension (1 mg/kg i.v., after 5 min) worked out at 100%. The compound also gave a Restoration rate in the assay on PAF-induced hypotension (1 mg/kg i.v., after 60 min) of 100%. In assay [1], the inhibition at 3 µM is 100% and the inhibition at 0.3 µM came out at 100%.
In the case of `CCCCCCCCCCCCCCCCCCNC(=O)OCC(Cn1ccc(=O)n(CC[N+](C)(C)C)c1=O)OC` (stereo not drawn) [Example 136, N-[2-{1-(3-Octadecylcarbamoyloxy-2-methoxypropyl)uracil-3-yl}ethyl]-N,N,N-trimethylammonium chloride], in assay [1], the inhibition at 30 µM was found to be 100%, the inhibition at 3 µM came to 100% and the inhibition at 0.3 µM stood at 11%.
With `CCCCCCCCCCCCCCCCCCNC(=O)OCC(COC(=O)NCc1scc[n+]1C)OC` (stereo not drawn) [Example 140, 2-[N-(3-Octadecylcarbamoyloxy-2-methoxypropoxycarbonyl)amino]methyl-3-methylthiazolium iodide], in assay [1], the inhibition at 30 µM is 100%, the inhibition at 3 µM amounted to 100%, the inhibition at 0.3 µM was determined as 100% and the inhibition at 0.03 µM came to 18%.
With `CCCCCCCCCCCCCCCCCCNC(=O)OCC(COC(=O)N(Cc1scc[n+]1C)C(C)=O)OC.[I-]` (stereo not drawn) [Example 142, 2-[N-Acetyl-N-(3-octadecylcarbamoyloxy-2-methoxypropoxycarbonyl)amino]methyl-3-methylthiazolium iodide], in the assay with PAF-induced hypotension (1 mg/kg i.v., after 5 min), the Restoration rate is reported as 100%. Besides, in the assay with PAF-induced hypotension (1 mg/kg i.v., after 60 min), the Restoration rate is 100%. Besides, in assay [1], the inhibition at 30 µM amounted to 100%, the inhibition at 3 µM is 100%, the inhibition at 0.3 µM turned out to be 100% and the inhibition at 0.03 µM worked out at 25%.
In the assay on PAF-induced hypotension (1 mg/kg i.v., after 5 min), `CCCCCCCCCCCCCCCCCCNC(=O)OCC(COC(=O)N(Cc1scc[n+]1CC)C(C)=O)OC.[I-]` (stereo not drawn) [Example 143, 2-[N-Acetyl-N-(3-octadecylcarbamoyloxy-2-methoxypropoxycarbonyl)amino]methyl-3-ethylthiazolium iodide] displayed a Restoration rate of 100%. Moreover, the Restoration rate in the assay with PAF-induced hypotension (1 mg/kg i.v., after 60 min) is reported as 100%. Further, in assay [1], the inhibition at 3 µM is 100% and the inhibition at 0.3 µM worked out at 100%.
As for `CCCCCCCCCCCCCCCCCCNC(=O)OCC(COC(=O)N(Cc1scc[n+]1CCC)C(C)=O)OC` (stereo not drawn) [Example 144, 2-[N-Acetyl-N-(3-octadecylcarbamoyloxy-2-methoxypropoxycarbonyl)amino]methyl-3-propylthiazolium iodide], in assay [1], the inhibition at 3 µM came to 100%, the inhibition at 0.3 µM was determined as 100% and the inhibition at 0.03 µM stood at 9%.
Consider `CCCCCCCCCCCCCCCCCCNC(=O)OCC(COC(=O)N(Cc1scc[n+]1CCCC)C(C)=O)OC` (stereo not drawn) [Example 145, 2-[N-Acetyl-N-(3-octadecylcarbamoyloxy-2-methoxypropoxycarbonyl)amino]methyl-3-butylthiazolium iodide], for which, in assay [1], the inhibition at 3 µM was found to be 100% and the inhibition at 0.3 µM was found to be 100%.
Consider `CCCCCCCCCCCCCCCCCCNC(=O)OCC(COC(=O)N(Cc1csc[n+]1C)C(C)=O)OC` (stereo not drawn) [Example 148, 4-[N-Acetyl-N-(3-octadecylcarbamoyloxy-2-methoxypropoxycarbonyl)amino]methyl-3-methylthiazolium iodide], for which, in assay [1], the inhibition at 3 µM amounted to 100% and the inhibition at 0.3 µM was found to be 42%.
In the case of `CCCCCCCCCCCCCCCCCCNC(=O)OCC(COC(=O)N(Cc1csc[n+]1CC)C(C)=O)OC.[I-]` (stereo not drawn) [Example 149, 4-[N-Acetyl-N-(3-octadecylcarbamoyloxy-2-methoxypropoxycarbonyl)amino]methyl-3-ethylthiazolium iodide], the Restoration rate came to 100% in the assay with PAF-induced hypotension (0.1 mg/kg i.v., after 5 min); 39% with PAF-induced hypotension (0.1 mg/kg i.v., after 60 min); 100% with PAF-induced hypotension (1 mg/kg i.v., after 5 min); 100% in the assay with PAF-induced hypotension (1 mg/kg i.v., after 60 min). In addition, the inhibition at 3 µM in assay [1] came to 100%. Besides, in assay [1], the inhibition at 0.3 µM worked out at 100%. Moreover, the inhibition at 0.03 µM in assay [1] came to 78%.
Consider `CCCCCCCCCCCCCCCCCCNC(=O)OCC(COC(=O)N(C(C)=O)C1CCC[N+](C)(CC)C1)OC` (stereo not drawn) [Example 161, 3-[N-Acetyl-N-(3-octadecylcarbamoyloxy-2-methoxypropoxycarbonyl)]amino-1-ethyl-1-methylpiperidinium chloride], for which, in assay [1], the inhibition at 30 µM came out at 100%, the inhibition at 3 µM was 100% and the inhibition at 0.3 µM was determined as 6%.
For the compound `CCCCCCCCCCCCCCCCCCNC(=O)OCC(COC(=O)N(Cc1cccc[n+]1CCC)C(C)=O)OC` (stereo not drawn) [Example 173, 3-[N-Acetyl-N-(N'-propylpyridinio-2-yl)methyl]carbamoyl-1-octadecylcarbamoyl-2-methylglycerol chloride], in assay [1], the inhibition at 30 µM worked out at 100%, the inhibition at 3 µM was found to be 100% and the inhibition at 0.3 µM amounted to 100%.
As to `C=CC[n+]1ccccc1CN(C(C)=O)C(=O)OCC(COC(=O)NCCCCCCCCCCCCCCCCCC)OC` (stereo not drawn) [Example 174, 3-[N-Acetyl-N-(N'-allylpyridinio-2-yl)methyl]carbamoyl-1-octadecylcarbamoyl-2-methylglycerol chloride], in assay [1], the inhibition at 30 µM came out at 100%, the inhibition at 3 µM came out at 100% and the inhibition at 0.3 µM worked out at 100%.
